The experiment deals with DMBA-4 metastatic transplantable rat mammary tumor. Briefly: Survival of rats with tumor transplant after laser/sensitizer assisted immunotherapy. It is filed as in vivo, Wistar Furth female rats. From the text:
A diode laser was used in this study. The Industrial Semiconductor Laser ISL50F (McDonnell Douglas Aerospace, St. Louis, Mo.), employs a diode array that is electrically powered by a diode driver. The laser emits radiation at wavelength of 808±10 nm, either in pulsed or in continuous mode. Its maximum near infrared power in the available configuration output is 35 watts. The laser is operated with standard electric power (110/120 VAC). A microprocessor monitors and adjusts the laser operating parameters. Laser energy can be delivered through optical fibers of various sizes. A red laser diode emits 670 nm light at 0.9 mW as the aiming beam. The continuous wave mode was employed in this experiment.
In the experiment, different power and duration of laser irradiation, ranging from 3 minutes at 5 watts to 5 minutes at 15 watts, were used. The output power was measured before, during and after the procedure using a Joule/Watt meter (Ophir Optics, Israel). Two types of fiber optics were used: 600 μm and 1200 μm in diameter.
Wistar Furth female rats, age 6 to 7 weeks and weighing 100 to 125 grams, were chosen for the study. The model is a metastatic transplantable rat mammary tumor. The tumor strain was the DMBA-4. Tumor cells (about 25,000 cells) were transplanted to the rats by injection into the superficial inguinal area between the skin and the muscle layer. Certain selected rats were injected with tumor cells in both left and right inguinal areas for simultaneous tumor growth.
The rats were fed a special food, a high saturated fat diet, to facilitate the growth of the tumor. The tumor usually grew to about 1 to 4 cm^3 within 10 to 14 days of tumor transplantation. In most cases the rat tumors were treated before they grew beyond 5 cm^3.
Before laser treatment, anesthesia was applied (100 μl xylazine and ketamine solution IM) and the hair overlaying the tumor was clipped and shaved. After the treatment, the rats were maintained in separate cages and still fed with the same high fat diet. […]

For the compound `CC1(C)C(/C=C/C=C/C=C/C=C2\N(CCCCS(=O)(=O)O)c3ccc4ccccc4c3C2(C)C)=[N+](CCCCS(=O)(=O)[O-])c2ccc3ccccc3c21` [ICG-H2O, indocyanine green], the “effect on survival rate” value (second group, treated by laser with ICG-H2O solution, vs control) is listed as “did not show any improvement on the survival rate”. In addition, where the note is “whole group, laser treated, data up to Jan. 16, 1995”, the “Survival Days” value was determined as 29.0 ± 3.5 days. Where the note is “whole group, laser treated, up to Apr. 1, 1995”, the “average survival time after the tumor transplant” value is 29.0 days.

These data come from US20050106153A1, “Combined physical and immunotherapy for cancer” (WOUND HEALING OF OKLAHOMA, priority 1995, published 2005).
